Where “and” joins values, the source holds several entries; their conditions need not be identical. Equal entries are not always repeated.
Experiments:
MOLM-13 [1] = assay: cells; parameters: species or system AML cell lines (8); Secondary HTS, 10-point dose-response in triplicate, Cell Titer Glo viability, four-parameter fit EC50; settings: Homo sapiens, MOLM-13, 72 h, read-out: MOLM-13
U937 [2] = assay: cells; parameters: species or system AML cell lines (8); Secondary HTS, 10-point dose-response in triplicate, Cell Titer Glo viability, four-parameter fit EC50; settings: Homo sapiens, U-937, 72 h, read-out: U937
M07e [3] = assay: Secondary dose-response HTS, Cell Titer Glo; assay type: cell-based, human; settings: Homo sapiens, M-07e, secondary high-throughput screen, read-out: average effective concentration, M07e
ML-2 [4] = assay: cells; parameters: species or system AML cell lines (8); Secondary HTS, 10-point dose-response in triplicate, Cell Titer Glo viability, four-parameter fit EC50; settings: Homo sapiens, ML-2, 72 h, read-out: ML-2
CMK [5] = assay: cells; parameters: species or system AML cell lines (8); Secondary HTS, 10-point dose-response in triplicate, Cell Titer Glo viability, four-parameter fit EC50; settings: Homo sapiens, CMK, 72 h, read-out: CMK
CMS [6] = assay: Secondary dose-response HTS, Cell Titer Glo; assay type: cell-based, human; settings: Homo sapiens, HTS, read-out: average effective concentration, CMS
CHRF288-11 [7] = assay: cells; parameters: species or system AML cell lines (8); Secondary HTS, 10-point dose-response in triplicate, Cell Titer Glo viability, four-parameter fit EC50; settings: 72 h, read-out: CHRF288-11
MV4-11 [8] = assay: cells; parameters: species or system AML cell lines (8); Secondary HTS, 10-point dose-response in triplicate, Cell Titer Glo viability, four-parameter fit EC50; settings: Homo sapiens, MV4-11, 72 h, read-out: MV4-11
MOLM-13 [9] = assay: Secondary dose-response HTS, Cell Titer Glo; assay type: cell-based, human; settings: secondary high-throughput screen, MOLM-13
MV4-11 [10] = assay: cells; parameters: species or system AML cell lines (8); settings: Homo sapiens, MV4-11, 72 h, read-out: MV4-11
ML2 = assay: Secondary dose-response HTS, Cell Titer Glo; assay type: cell-based, human; settings: Homo sapiens; secondary high-throughput screen; ML-2; read-out: average effective concentration, ML-2
MV4-11 [11] = assay: Secondary dose-response HTS, Cell Titer Glo; assay type: cell-based, human; settings: secondary high-throughput screen, MV4-11; for EC50: Homo sapiens, read-out: average effective concentration, MV4-11
U937 [12] = assay: Secondary dose-response HTS, Cell Titer Glo; assay type: cell-based, human; settings: Homo sapiens, U-937; secondary high-throughput screen; U937; read-out: average effective concentration, U937
CHRF288-11 [13] = assay: Secondary dose-response HTS, Cell Titer Glo; assay type: cell-based, human; settings: Homo sapiens, HTS; secondary high-throughput screen; CHRF288-11; read-out: average effective concentration, CHRF288-11
MOLM-13 [14] = assay: cells; parameters: species or system AML cell lines (8); Secondary HTS, 10-point dose-response in triplicate, Cell Titer Glo viability, four-parameter fit EC50; settings: Homo sapiens, read-out: MOLM-13
CMK [15] = assay: Secondary dose-response HTS, Cell Titer Glo; assay type: cell-based, human; settings: Homo sapiens, CMK, read-out: average effective concentration, CMK
M07e [16] = assay: cells; parameters: species or system AML cell lines (8); Secondary HTS, 10-point dose-response in triplicate, Cell Titer Glo viability, four-parameter fit EC50; settings: M-07e, 72 h, read-out: M07e
CMS [17] = assay: cells; parameters: species or system AML cell lines (8); Secondary HTS, 10-point dose-response in triplicate, Cell Titer Glo viability, four-parameter fit EC50; settings: 72 h, read-out: CMS
MOLM-13 [18] = tested on: MOLM-13; parameters: species or system AML cell lines (8); Primary HTS, single concentration about 10 uM, Cell Titer Glo viability; log10 luminescence, per cent inhibition relative to cycloheximide control; settings: 72 h, relative to cycloheximide control, log10 luminescence, inhibitor, MOLM-13 %inh, 10 µM
M07e [19] = tested on: M07e; parameters: species or system AML cell lines (8); Primary HTS, single concentration about 10 uM, Cell Titer Glo viability; log10 luminescence, per cent inhibition relative to cycloheximide control; settings: 72 h, relative to cycloheximide control, log10 luminescence, inhibitor, M07e %inh, 10 µM
U937 [20] = tested on: U937; parameters: species or system AML cell lines (8); Primary HTS, single concentration about 10 uM, Cell Titer Glo viability; log10 luminescence, per cent inhibition relative to cycloheximide control; settings: 72 h, relative to cycloheximide control, log10 luminescence, inhibitor, U937 %inh, 10 µM
CMS [21] = tested on: CMS; parameters: species or system AML cell lines (8); Primary HTS, single concentration about 10 uM, Cell Titer Glo viability; log10 luminescence, per cent inhibition relative to cycloheximide control; settings: 72 h, relative to cycloheximide control, log10 luminescence, inhibitor, CMS %inh, 10 µM
CMK [22] = tested on: CMK; parameters: species or system AML cell lines (8); Primary HTS, single concentration about 10 uM, Cell Titer Glo viability; log10 luminescence, per cent inhibition relative to cycloheximide control; settings: 72 h, relative to cycloheximide control, log10 luminescence, inhibitor, CMK %inh, 10 µM
MV4-11 [23] = tested on: MV4-11; parameters: species or system AML cell lines (8); Primary HTS, single concentration about 10 uM, Cell Titer Glo viability; log10 luminescence, per cent inhibition relative to cycloheximide control; settings: 72 h, relative to cycloheximide control, log10 luminescence, inhibitor, MV4-11 %inh, 10 µM
ML-2 [24] = tested on: ML-2; parameters: species or system AML cell lines (8); Primary HTS, single concentration about 10 uM, Cell Titer Glo viability; log10 luminescence, per cent inhibition relative to cycloheximide control; settings: 72 h, relative to cycloheximide control, log10 luminescence, inhibitor, ML-2 %inh, 10 µM
[25] = secondary high-throughput screen, CMS
[26] = secondary high-throughput screen

Row | Structure (SMILES) | EC50 (MOLM-13 [1]) [µM] | EC50 (U937 [2]) [µM] | EC50 (M07e [3]; M07e) [µM] | EC50 (ML-2 [4]) [µM] | EC50 (CMK [5]) [µM] | EC50 (CMS [6]; [25]) [µM] | EC50 (CHRF288-11 [7]) [µM] | EC50 (MV4-11 [8]) [µM] | EC50 (U937 [12]) [µM] | EC50 (CMS [17]) [µM] | further results
1 | CCn1c(C(=O)N(C2CC2)C2CC2)cc2c3c(ncn3C)c(Nc3cc(C)n(C)n3)nc21 [BMS-911543] | > 10 | > 10 | 8.7 | > 10 | > 10 | 5 | > 10 | > 10 |  |  | 
2 | CC1=C(O)C(=O)C=C2C1=CC=C1[C@@]2(C)CC[C@@]2(C)[C@@H]3C[C@](C)(C(=O)O)CC[C@]3(C)CC[C@]12C [CELASTROL] |  |  |  |  |  | 0.064 |  |  | 0.079 |  | average effective concentration, MOLM-13 (MOLM-13 [9]): Inactive; EC50 (MV4-11 [10]): > 10 µM; EC50 (ML2): 0.067 µM; average effective concentration, MV4-11 (MV4-11 [11]): Inactive; EC50 (M07e [3]; […]): 0.94 µM; EC50 (CHRF288-11 [13]): 0.075 µM; EC50 (MOLM-13 [14]; 72 h cell viability): > 10 µM; EC50 (CMK [15]; [26]): 0.069 µM
3 | Cc1cc(Nc2cc(N3CCN(C)CC3)nc(/C=C/c3ccccc3)n2)n[nH]1 [ENMD-2076] | 0.0955 | > 10 |  | > 10 |  |  | > 10 | 0.125 |  |  | EC50 (CMS [6]): 3.2 µM; EC50 (M07e [16]): > 10 µM; EC50 (CMK [15]): 0.11 µM
4 | CC(C)Oc1ccc(C(=O)N[C@H](CNC(=O)CN(C)C)Cc2ccc(-c3cn4cccc([C@H](C)O)c4n3)cc2)cc1Cl [GSK-923295] | > 10 |  | 0.14 | 0.0077 | > 10 |  | > 10 | > 10 | 0.001 |  | EC50 (CMS [6]): 0.011 µM
5 | CC(C)C[C@H](NC(=O)CNC(=O)c1cc(Cl)ccc1Cl)B(O)O [IXAZOMIB] | 0.0067 |  | 0.011 | 0.0052 |  | 0.0056 |  | > 10 | 0.01 |  | EC50 (CHRF288-11 [13]): 0.01 µM; EC50 (CMK [15]; [26]): 0.007 µM
6 | C[C@]12O[C@H](C[C@]1(O)CO)n1c3ccccc3c3c4c(c5c6ccccc6n2c5c31)CNC4=O [LESTAURTINIB] |  |  | 0.001 |  |  | 0.00755 |  |  | 0.041 |  | EC50 (ML2): 0.32 µM; EC50 (MV4-11 [11]): 3.2 µM; EC50 (CHRF288-11 [13]): 0.11 µM; EC50 (MOLM-13 [14]; 72 h cell viability): > 10 µM; EC50 (CMK [15]; [26]): 0.0033 µM
7 | O=c1cc(N2CCOCC2)oc2c(-c3ccccc3)cccc12 [LY-294002] | > 10 | > 10 | > 10 | > 10 | > 10 | > 10 | > 10 | > 10 |  |  | 
8 | Cc1ccc(C(=O)Nc2ccc(Oc3cc4cnn(C)c4cc3-c3cn[nH]c3)c(F)c2)c(=O)n1-c1ccc(F)cc1 [Merestinib] | 0.0058 | > 10 | 0.025 | > 10 | > 10 |  | > 10 | > 10 |  | > 10 | 
9 | Cc1cn(-c2cc(NC(=O)c3ccc(C)c(Nc4nccc(-c5cccnc5)n4)c3)cc(C(F)(F)F)c2)cn1 [NILOTINIB] | > 10 | > 10 | > 10 | > 10 | > 10 |  | > 10 | > 10 |  | > 10 | 
10 | CCCc1nc(C(C)(C)O)c(C(=O)OCc2oc(=O)oc2C)n1Cc1ccc(-c2ccccc2-c2nnn[nH]2)cc1 [OLMESARTAN MEDOXOMIL] | > 10 | > 10 | 5.8 | > 10 | > 10 |  | > 10 | > 10 |  | > 10 | MOLM-13 %inh (MOLM-13 [18]): 3.566% and -1.782%; M07e %inh (M07e [19]): -0.6363% and -1.428%; U937 %inh (U937 [20]): -0.6807% and -1.42%; CMS %inh (CMS [21]): -4.154% and -3.286%; CMK %inh (CMK [22]): 0.5387% and -8.221%; MV4-11 %inh (MV4-11 [23]): 1.21% and -0.1295%; ML-2 %inh (ML-2 [24]): 0.6032% and 1.808%
11 | O=C1CCC[C@@H]2[C@H]3CCC[N+]4([O-])CCC[C@@H](CN12)[C@@H]34 (stereo partly drawn) [OXYMATRINE] | > 10 | > 10 | 0.058 | > 10 | > 10 |  | > 10 | > 10 |  | > 10 | 
12 | CO[C@H]1C[C@@H]2CC[C@@H](C)[C@@](O)(O2)C(=O)C(=O)N2CCCC[C@H]2C(=O)O[C@H]([C@H](C)C[C@@H]2CC[C@@H](O)[C@H](OC)C2)CC(=O)[C@H](C)/C=C(\C)[C@@H](O)[C@@H](OC)C(=O)[C@H](C)C[C@H](C)/C=C/C=C/C=C/1C [SIROLIMUS] |  |  |  | > 10 | > 10 | > 10 | > 10 |  | 0.001 |  | EC50 (MOLM-13 [9]; Homo sapiens, read-out: average effective concentration, MOLM-13): > 10 µM; EC50 (MV4-11 [11]): 0.001 µM; EC50 (M07e [16]): > 10 µM
13 | COc1cccc2c1c(O)c(C(=O)N(C)c1ccc(C(F)(F)F)cc1)c(=O)n2C [TASQUINIMOD] | > 10 | > 10 | 1.2 | > 10 | > 10 |  | > 10 | > 10 |  | > 10 | 
14 | CS(=O)(=O)c1ccc(-c2cnc(N)c(C(=O)Nc3ccccc3)n2)cc1 [VE-821] | > 10 | > 10 | 6.7 | > 10 | > 10 |  | > 10 | > 10 |  | > 10 | 
15 | COC(=O)[C@]1(C)CC[C@]2(C)CC[C@]3(C)C4=CC=C5C(=CC(=O)C(O)=C5C)[C@]4(C)CC[C@@]3(C)[C@@H]2C1 [[…]] |  |  |  |  |  |  |  |  |  |  | EC50 (MV4-11 [10]): > 10 µM; EC50 (MOLM-13 [14]; MOLM-13, 72 h): > 10 µM
